This is an account of results in ChEMBL document CHEMBL4229570, “Pyrrolo[2,1-c][1,4] benzodiazepine-3,11-diones protect SHSY-5Y cells from Cd-induced apoptosis involving suppression of endoplasmic reticulum stress” (Bioorg Med Chem, 2018).

Data set [1] concerns SH-SY5Y. Nature of the data set: Neuroprotective activity against CdCl2-induced toxicity in human SH-SY5Y cells assessed as cell viability at 25 uM preincubated for 2 hrs followed by CdCl2 challenge and measured after 24 hrs by CCK8 assay (reference value: 46.2 +/- 1.7%). The format is functional. The note with it: read-out: Activity. On the technique in general: Tetrazolium dyes change colour on reduction, which living cells bring about.

For data set [2], the system named is SH-SY5Y. Nature of the data set: Neuroprotective activity against CdCl2-induced endoplasmic reticulum stress-mediated apoptosis in human SH-SY5Y cells assessed as downregulation of cleaved caspase-12 protein expression at 25 uM preincubated for 2 hrs followed by CdCl2 challenge and measured after 24 hrs by Western blot analysis. Format: functional, cell-based.

Data set [3] relates to SH-SY5Y. Nature of the data set: Neuroprotective activity against CdCl2-induced apoptosis in human SH-SY5Y cells assessed as apoptosis rate at 25 uM preincubated for 2 hrs followed by CdCl2 challenge and measured after 24 hrs by annexin V/propidium iodide staining-based flow cytometric analysis (reference value: 73.2%). Format: functional. Background: Flow cytometry measures light scatter and fluorescence of single cells or particles in a stream.

Data set [4] relates to SH-SY5Y. Nature of the data set: Induction of apoptosis in human SH-SY5Y cells at 25 uM after 24 hrs by annexin V/propidium iodide staining-based flow cytometric analysis relative to control. The format is cell-based.
In data set [5] the test system is SH-SY5Y. Nature of the data set: Neuroprotective activity against CdCl2-induced endoplasmic reticulum stress-mediated apoptosis in human SH-SY5Y cells assessed as downregulation of cleaved caspase-3 protein expression at 25 uM preincubated for 2 hrs followed by CdCl2 challenge and measured after 24 hrs by Western blot analysis. Format: functional, cell-based. On the technique in general: In western blotting, separated proteins are transferred to a membrane and probed.

Data set [6] deals with SH-SY5Y. Nature of the data set: Neuroprotective activity against CdCl2-induced endoplasmic reticulum stress-mediated apoptosis in human SH-SY5Y cells assessed as downregulation of GRP78 protein expression at 25 uM preincubated for 2 hrs followed by CdCl2 challenge and measured after 24 hrs by Western blot analysis. Format: functional, cell-based.
For data set [7], the system named is SH-SY5Y. Nature of the data set: Neuroprotective activity against CdCl2-induced endoplasmic reticulum stress-mediated apoptosis in human SH-SY5Y cells assessed as downregulation of CHOP protein expression at 25 uM preincubated for 2 hrs followed by CdCl2 challenge and measured after 24 hrs by Western blot analysis. Format: functional, cell-based.

Activity calls are given as the source filed them. The calls are words filed in the database; no cut-off is given here.

Turning to `COc1cc2c(cc1OCc1ccccc1)CN1C(=O)CC[C@H]1C(=O)N2CCCCN1CCN(c2ncccn2)CC1`, the viability at 25 µM in data set [1] is 62.2%.

With `O=C1[C@@H]2CCC(=O)N2Cc2cc(Br)ccc2N1CCCCN1CCN(c2ncccn2)CC1`, in data set [1], the viability at 25 µM was 63.1%. With `O=C1[C@@H]2CCC(=O)N2Cc2ccccc2N1CCCN1CCN(c2ccccn2)CC1`, in data set [1], the viability at 25 µM is 56.7%. For the molecule `O=C1Nc2cc3c(cc2CN2C(=O)CC[C@@H]12)OCO3`, the viability at 25 µM in data set [1] amounted to 59.2%. Turning to `O=C1Nc2ccccc2CN2C(=O)CC[C@H]12`, the viability at 25 µM in data set [1] turned out to be 48.4%. The same measure, in the same setting: as for `COc1cc2c(cc1OCc1ccccc1)CN1C(=O)CC[C@H]1C(=O)N2`, the figure is 66.2%; as for `COc1cc2c(cc1OCc1ccccc1)CN1C(=O)CC[C@@H]1C(=O)N2`, 60.4%; as for `O=C1Nc2cc3c(cc2CN2C(=O)CC[C@H]12)OCO3`, 56.6%. The same measure, in the same setting: as for `O=C1[C@@H]2CCC(=O)N2Cc2ccccc2N1CCCN1CCN(c2ncccn2)CC1`, the figure is 51.3%; as for `COc1cc2c(cc1O)CN1C(=O)CC[C@H]1C(=O)N2`, 55.7%. Consider `O=C1[C@@H]2CCC(=O)N2Cc2ccccc2N1CCCCCN1CCN(c2ccccn2)CC1`, for which the viability at 25 µM in data set [1] is 59.2%.

Regarding `Cc1ccc(-c2ccc3c(c2)CN2C(=O)CC[C@H]2C(=O)N3)cc1`, the viability at 25 µM in data set [1] is 33.9%. Regarding `COc1cc2c(cc1O)CN1C(=O)CC[C@@H]1C(=O)N2`, the viability at 25 µM in data set [1] was determined as 56.8%. Same read-out and setting: as for `Cc1ccc(-c2ccc3c(c2)CN2C(=O)CC[C@@H]2C(=O)N3)cc1`, the figure is 36.2%.

For `COc1cc2c(cc1OCc1ccccc1)CN1C(=O)CC[C@H]1C(=O)N2CCCCN1CCN(c2ccccn2)CC1`, the result in data set [2], in data set [5], in data set [6] and in data set [7] was Active. For the same molecule, the Activity in data set [3] is 18.7%; in data set [4], 4.2 to 5%. Moreover, the viability at 25 µM in data set [1] worked out at 68.6%.

`O=C1Nc2ccc(Cl)cc2CN2C(=O)CC[C@H]12`: the viability at 25 µM in data set [1] was 56.2%. Same read-out and setting: as for `O=C1[C@@H]2CCC(=O)N2Cc2ccccc2N1CCCCCN1CCN(c2ncccn2)CC1`, the figure is 51.4%.

For the molecule `O=C1[C@@H]2CCC(=O)N2Cc2ccccc2N1CCCCN1CCN(c2ccccn2)CC1`, in data set [1], the viability at 25 µM is 66.2%. The same measure, in the same setting: under `O=C1Nc2ccc(Cl)cc2CN2C(=O)CC[C@@H]12` stands 61.4%. Regarding `Cc1ccccc1-c1ccc2c(c1)CN1C(=O)CC[C@H]1C(=O)N2`, the viability at 25 µM in data set [1] worked out at 39.8%.

For the molecule `O=C1Nc2ccccc2CN2C(=O)CC[C@@H]12`, the viability at 25 µM in data set [1] was 52.2%. `O=C1Nc2ccc(Br)cc2CN2C(=O)CC[C@@H]12`: the viability at 25 µM in data set [1] was 66.1%.

Consider `O=C1[C@@H]2CCC(=O)N2Cc2cc(Br)ccc2N1CCCCN1CCN(c2ccccn2)CC1`, for which, in data set [1], the viability at 25 µM is 62.4%. In the case of `O=C1[C@@H]2CCC(=O)N2Cc2ccccc2N1CCCCN1CCN(c2ncccn2)CC1`, the viability at 25 µM in data set [1] amounted to 59.2%. For the molecule `Cc1ccccc1-c1ccc2c(c1)CN1C(=O)CC[C@@H]1C(=O)N2`, the viability at 25 µM in data set [1] stood at 42.3%.

`O=C1Nc2ccc(Br)cc2CN2C(=O)CC[C@H]12`: the viability at 25 µM in data set [1] amounted to 60.4%.
